This passage reports T/C results from PubChem BioAssay AID256 (DTP/NCI, 2004).

“And” between values parts separate entries of the source, which are not always exact repeats. Identical values can stand only once. Toxic doses and inconclusive results are not listed.

This assay has as its system CD2F1 mice, L1210 leukemia ip, survival T/C. The experiment in a line: NCI In Vivo Anticancer Drug Screen. Data for tumor model L1210 Leukemia (intraperitoneal) in CD2F1 (CDF1) mice. To be noted: higher = longer survival. In short, it runs like this:
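Vehicle-treated tumor-bearing mice served as controls (C) for compound-treated mice (T). Reported figure is T divided by C.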

Where [1] appears, read: endpoint: mean survival time, dose: 100.0 mg/kg/injection, schedule: Q04DX002 (ip), vehicle: saline with Tween-80.
[2] abbreviates: endpoint: mean survival time, dose: 200.0 mg/kg/injection, schedule: Q04DX002 (ip), vehicle: saline with Tween-80.
The mark [3] stands for this setting: endpoint: mean survival time, dose: 400.0 mg/kg/injection, schedule: Q04DX002 (ip), vehicle: saline with Tween-80.
The mark [4] stands for this setting: endpoint: mean survival time, dose: 100.0 mg/kg/injection, schedule: Q04DX003 (ip), vehicle: saline with Tween-80.
The mark [5] stands for this setting: endpoint: mean survival time, dose: 200.0 mg/kg/injection, schedule: Q04DX003 (ip), vehicle: saline with Tween-80.
[6] abbreviates: endpoint: mean survival time, dose: 400.0 mg/kg/injection, schedule: Q04DX003 (ip), vehicle: saline with Tween-80.
Where [7] appears, read: endpoint: mean survival time, dose: 100.0 mg/kg/injection, schedule: Q04DX003 (ip), vehicle: saline.
Setting [8] is: endpoint: mean survival time, dose: 100.0 mg/kg/injection, schedule: Q01DX009 (ip), vehicle: saline.
[9] abbreviates: endpoint: mean survival time, dose: 100.0 mg/kg/injection, schedule: Q01DX001 (ip), vehicle: saline with Tween-80.
Where [10] appears, read: endpoint: mean survival time, dose: 200.0 mg/kg/injection, schedule: Q01DX001 (ip), vehicle: saline with Tween-80.

As for `O=C(NC1CCCCC1)OCc1c(COC(=O)NC2CCCCC2)c(-c2ccc(Cl)c(Cl)c2)n2c1CCC2`, the T/C is 119 % of control and 112 % of control (endpoint: mean survival time, dose: 12.5 mg/kg/injection, schedule: Q01DX009 (ip), vehicle: saline with Tween-80); 112 % of control (endpoint: mean survival time, dose: 25.0 mg/kg/injection, schedule: Q01DX009 (ip), vehicle: saline with Tween-80); 122 % of control (endpoint: mean survival time, dose: 100.0 mg/kg/injection, schedule: Q01DX009 (ip), vehicle: saline with Tween-80); 151 % of control and 157 % of control (endpoint: mean survival time, dose: 200.0 mg/kg/injection, schedule: Q01DX009 (ip), vehicle: saline with Tween-80); 121 % of control and 97 % of control (endpoint: mean survival time, dose: 400.0 mg/kg/injection, schedule: Q01DX009 (ip), vehicle: saline with Tween-80).

Regarding `CC(CN=Cc1ccccc1N)N=Cc1ccccc1N` (stereo unspecified), the T/C reads like this: (endpoint: mean survival time, dose: 50.0 mg/kg/injection, schedule: Q04DX002 (ip), vehicle: saline with Tween-80) 93 % of control; under setting [1], 97 % of control; under setting [2], 97 % of control; under setting [3], 113 % of control.

On to `N=[N+]=CC(=O)CC(N)C(=O)O` (stereo unspecified), for which the T/C runs as follows: (endpoint: median survival time, dose: 400.0 mg/kg/injection, schedule: Q01DX001 (ip), vehicle: saline) 111 % of control; (endpoint: median survival time, dose: 800.0 mg/kg/injection, schedule: Q01DX001 (ip), vehicle: saline) 112 % of control; (endpoint: median survival time, dose: 1600.0 mg/kg/injection, schedule: Q01DX001 (ip), vehicle: saline) 25 % of control.

`COc1ccccc1OC(=O)CCl`: the T/C runs as follows: under setting [4], 111 % of control; under setting [5], 101 % of control; under setting [6], 88 % of control.

For the compound `Cc1c2cc3c(cc2cc2c4cc5c(cc4cc[n+]12)OCO5)OCO3` (tested in a mixture with another compound), the T/C by setting is: (endpoint: mean survival time, dose: 6.25 mg/kg/injection, schedule: Q04DX003 (ip), vehicle: saline) 116 % of control and 121 % of control; (endpoint: mean survival time, dose: 18.75 mg/kg/injection, schedule: Q04DX003 (ip), vehicle: saline) 95 % of control; (endpoint: mean survival time, dose: 25.0 mg/kg/injection, schedule: Q04DX003 (ip), vehicle: saline) 115 % of control and 90 % of control.

Consider `[Cl][Ga]([Cl])[Cl]`, for which the T/C runs as follows: (endpoint: mean survival time, dose: 50.0 mg/kg/injection, schedule: Q04DX003 (ip), vehicle: saline) 96 % of control; (endpoint: mean survival time, dose: 100.0 mg/kg/injection, schedule: Q01DX001 (ip), vehicle: saline) 92 % of control; under setting [7], 108 % of control; (endpoint: mean survival time, dose: 200.0 mg/kg/injection, schedule: Q01DX001 (ip), vehicle: saline) 95 % of control.

Turning to `C/C=C(\C)C1(CCC)C(=O)NC(=S)NC1=O`, the T/C is, setting by setting: (endpoint: mean survival time, dose: 75.0 mg/kg/injection, schedule: Q01DX001 (ip), vehicle: other) 106 % of control; (endpoint: mean survival time, dose: 150.0 mg/kg/injection, schedule: Q01DX001 (ip), vehicle: other) 116 % of control.

Take `CC(C)(C)OC(=O)NCCCC(=O)O`: the T/C was 93 % of control under setting [4] and 90 % of control under setting [5].

For `O=C1c2cccc(Cl)c2C(=O)c2c1cccc2[N+](=O)[O-]`, the T/C is 90 % of control (endpoint: mean survival time, dose: 100.0 mg/kg/injection, schedule: Q04DX003 (ip), vehicle: Klucel (hydroxypropylcellulose) (HPC)); 102 % of control (endpoint: mean survival time, dose: 200.0 mg/kg/injection, schedule: Q04DX003 (ip), vehicle: Klucel (hydroxypropylcellulose) (HPC)); 98 % of control (endpoint: mean survival time, dose: 400.0 mg/kg/injection, schedule: Q04DX003 (ip), vehicle: Klucel (hydroxypropylcellulose) (HPC)).

Turning to `O=C(CCl)Nc1ccc([N+](=O)[O-])cc1`, the T/C under setting [3] is 87 % of control.

As for `C=C[Si](C)(C=C)C=C`, the T/C is, setting by setting: under setting [8], 95 % of control; (endpoint: mean survival time, dose: 100.0 mg/kg/injection, schedule: Q04DX002 (ip), vehicle: saline) 91 % of control; (endpoint: mean survival time, dose: 200.0 mg/kg/injection, schedule: Q01DX009 (ip), vehicle: saline) 97 % of control; (endpoint: mean survival time, dose: 200.0 mg/kg/injection, schedule: Q04DX002 (ip), vehicle: saline) 98 % of control; (endpoint: mean survival time, dose: 400.0 mg/kg/injection, schedule: Q01DX009 (ip), vehicle: saline) 93 % of control; (endpoint: mean survival time, dose: 400.0 mg/kg/injection, schedule: Q04DX002 (ip), vehicle: saline) 98 % of control.

For the compound `O=C(O)CC12CCCCC1CCCC2` (stereo unspecified), the T/C by setting is: (endpoint: mean survival time, dose: 100.0 mg/kg/injection, schedule: Q04DX003 (ip), vehicle: acetone) 95 % of control; (endpoint: mean survival time, dose: 200.0 mg/kg/injection, schedule: Q04DX003 (ip), vehicle: acetone) 91 % of control; (endpoint: mean survival time, dose: 400.0 mg/kg/injection, schedule: Q04DX003 (ip), vehicle: acetone) 90 % of control.

In the case of `COc1ccc2c(c1C)Cc1ccccc1C2=O`, the T/C is 90 % of control under setting [4], 89 % of control under setting [5] and 97 % of control under setting [6].

In the case of `CC(C)NC(=O)C1C2CCC(C2)C1C(=O)NC(C)C` (stereo unspecified), the T/C under setting [7] was 98 % of control; the T/C (endpoint: mean survival time, dose: 200.0 mg/kg/injection, schedule: Q04DX003 (ip), vehicle: saline) is 111 % of control; the T/C (endpoint: mean survival time, dose: 400.0 mg/kg/injection, schedule: Q04DX003 (ip), vehicle: saline) is 98 % of control.

Take `CCC(C)C(=O)c1ccccc1` (stereo unspecified): the T/C reads like this: (endpoint: mean survival time, dose: 50.0 mg/kg/injection, schedule: Q01DX001 (ip), vehicle: saline with Tween-80) 100 % of control; under setting [9], 95 % of control; under setting [10], 100 % of control.

Turning to `CS(=O)(=O)c1ccccn1`, the T/C runs as follows: (endpoint: mean survival time, dose: 100.0 mg/kg/injection, schedule: Q01DX001 (ip), vehicle: saline sonified) 100 % of control; (endpoint: mean survival time, dose: 200.0 mg/kg/injection, schedule: Q01DX001 (ip), vehicle: saline sonified) 97 % of control; (endpoint: mean survival time, dose: 400.0 mg/kg/injection, schedule: Q01DX001 (ip), vehicle: saline sonified) 100 % of control.

`CC1(C)N=C(N)N=C(N)N1c1ccc(CCCCc2ccc(Cl)c(S(=O)(=O)F)c2)c(Cl)c1`: the T/C is, setting by setting: (endpoint: mean survival time, dose: 2.4 mg/kg/injection, schedule: Q01DX009 (ip), vehicle: saline with Tween-80) 101 % of control; (endpoint: mean survival time, dose: 3.6 mg/kg/injection, schedule: Q01DX009 (ip), vehicle: saline with Tween-80) 95 % of control; (endpoint: mean survival time, dose: 5.4 mg/kg/injection, schedule: Q01DX009 (ip), vehicle: saline with Tween-80) 104 % of control; (endpoint: mean survival time, dose: 8.0 mg/kg/injection, schedule: Q01DX009 (ip), vehicle: saline with Tween-80) 106 % of control; (endpoint: mean survival time, dose: 12.0 mg/kg/injection, schedule: Q01DX009 (ip), vehicle: saline with Tween-80) 108 % of control; (endpoint: mean survival time, dose: 18.0 mg/kg/injection, schedule: Q01DX009 (ip), vehicle: saline with Tween-80) 117 % of control. Also, the T/C (endpoint: mean survival time, dose: 100.0 mg/kg/injection, schedule: Q04DX003 (ip), vehicle: saline sonified) is 90 % of control.

Turning to `COc1ccccc1NC(=O)Nc1cc([N+](=O)[O-])ccc1OC`, the T/C by setting is: under setting [1], 96 % of control; under setting [2], 93 % of control; under setting [3], 86 % of control.

For the compound `CN(C)CC(=O)N/N=C\c1ccc([N+](=O)[O-])s1`, the T/C runs as follows: (endpoint: mean survival time, dose: 50.0 mg/kg/injection, schedule: Q01DX009 (ip), vehicle: saline) 91 % of control; under setting [8], 93 % of control.

In the case of `C=C1C(=O)OCC1C(=O)O` (stereo unspecified), the T/C (endpoint: mean survival time, dose: 4.0 mg/kg/injection, schedule: Q01DX009 (ip), vehicle: saline) was 97 % of control and 106 % of control; the T/C (endpoint: mean survival time, dose: 8.0 mg/kg/injection, schedule: Q01DX009 (ip), vehicle: saline) is 96 % of control and 101 % of control; the T/C (endpoint: mean survival time, dose: 16.0 mg/kg/injection, schedule: Q01DX009 (ip), vehicle: saline) is 101 % of control and 110 % of control; the T/C (endpoint: mean survival time, dose: 32.0 mg/kg/injection, schedule: Q01DX009 (ip), vehicle: saline) was 104 % of control and 110 % of control; the T/C (endpoint: mean survival time, dose: 64.0 mg/kg/injection, schedule: Q01DX009 (ip), vehicle: saline) was 88 % of control.

For the compound `CC(C)OC(=O)Nc1cccc(Cl)c1F`, the T/C by setting is: under setting [9], 96 % of control; under setting [10], 95 % of control; (endpoint: mean survival time, dose: 400.0 mg/kg/injection, schedule: Q01DX001 (ip), vehicle: saline with Tween-80) 96 % of control.

For the compound `CCn1c(=O)c2nc(Cl)n(C3OCC(OC(C)=O)C(OC(C)=O)C3OC(C)=O)c2n(CC)c1=O` (stereo unspecified), the T/C by setting is: (endpoint: mean survival time, dose: 12.5 mg/kg/injection, schedule: Q01DX005 (ip), vehicle: distilled water + Tween-80) 96 % of control; (endpoint: mean survival time, dose: 25.0 mg/kg/injection, schedule: Q01DX005 (ip), vehicle: distilled water + Tween-80) 96 % of control; (endpoint: mean survival time, dose: 50.0 mg/kg/injection, schedule: Q01DX005 (ip), vehicle: distilled water + Tween-80) 96 % of control; (endpoint: mean survival time, dose: 100.0 mg/kg/injection, schedule: Q01DX005 (ip), vehicle: distilled water + Tween-80) 98 % of control; (endpoint: mean survival time, dose: 200.0 mg/kg/injection, schedule: Q01DX005 (ip), vehicle: distilled water + Tween-80) 98 % of control.
